Laboratory results taken from patent publication US11142519B2, “Pesticidally active pyrazole derivatives” (SYNGENTA PARTICIPATIONS AG, priority 2017, dated 2021).

Tests used:
Format in all cases: in vivo
Thrips tabaci = Thrips tabaci (Onion thrips) sunflower leaf disc spray test; details: foliar, 144 h, application rate of 200 ppm, population of mixed ages, 6 days after infestation
Experimental: Thrips tabaci (Onion thrips):
(§1) Sunflower leaf discs were placed on agar in 24-well microtiter plates and sprayed with aqueous test solutions prepared from 10,000 ppm DMSO stock solutions. After drying the leaf discs were infested with a thrips population of mixed ages. The samples were assessed for mortality 6 days after infestation.

Tetranychus urticae = Tetranychus urticae (Two-spotted spider mite) bean leaf disc spray test; details: foliar, 192 h, application rate of 200 ppm, 8 days after infestation, read-out: mortality on mixed population (mobile stages)
Experimental: Tetranychus urticae (Two-spotted spider mite):
as §1, with “Bean” for “Sunflower”, “discs” for “discs were placed”, “were” for “and”, “mite” for “thrips”, “on mixed population (mobile stages) 8” for “6”

Euschistus heros = Euschistus heros (Neotropical Brown Stink Bug) soybean leaf spray test; details: 120 h, application rate of 200 ppm, N2 nymphs, 5 days after infestation, read-out: effect in at least one of the two categories (mortality or growth inhibition)
Experimental: Euschistus heros (Neotropical Brown Stink Bug)
Soybean leaves on agar in 24-well microtiter plates were sprayed with aqueous test solutions prepared from 10,000 ppm DMSO stock solutions. After drying the leaves were infested with N2 nymphs. The samples were assessed for mortality and growth inhibition in comparison to untreated samples 5 days after infestation. The following compounds gave an effect of at least 80% in at least one of the two categories (mortality or growth inhibition) at an application rate of 200 ppm: 1, 3 and 7.

Diabrotica balteata = Diabrotica balteata (Corn root worm) maize sprout spray test; details: 96 h, application rate of 200 ppm, L2 larvae, 4 days after infestation, read-out: effect in at least one of the two categories (mortality or growth inhibition)
Experimental: Diabrotica balteata, (Corn root worm)
Maize sprouts, placed on an agar layer in 24-well microtiter plates were treated with aqueous test solutions prepared from 10,000 ppm DMSO stock solutions by spraying. After drying, the plates were infested with L2 larvae (6 to 10 per well). The samples were assessed for mortality and growth inhibition in comparison to untreated samples 4 days after infestation. The following compounds gave an effect of at least 80% in at least one of the two categories (mortality or growth inhibition) at an application rate of 200 ppm: 1, 2, 3 and 7.

Plutella xylostella = Plutella xylostella (Diamond back moth) artificial diet test; details: 120 h, application rate of 200 ppm, L2 larvae, 5 days after infestation, read-out: effect in at least one of the two categories (mortality or growth inhibition)
Experimental: Plutella xylostella (Diamond back moth):
24-well microtiter plates with artificial diet were treated with aqueous test solutions prepared from 10,000 ppm DMSO stock solutions by pipetting. After drying, the plates were infested with L2 larvae (10 to 15 per well). The samples were assessed for mortality and growth inhibition in comparison to untreated samples 5 days after infestation. The following compounds gave an effect of at least 80% in at least one of the two categories (mortality or growth inhibition) at an application rate of 200 ppm: 1, 2, 3, 4, 7 and 10.

Spodoptera littoralis = Spodoptera littoralis (Egyptian cotton leaf worm) cotton leaf disc spray test; details: foliar, 72 h, application rate of 200 ppm, L1 larvae, 3 days after infestation, read-out: control (at least one of mortality, anti-feedant effect, growth inhibition)
Experimental: Spodoptera littoralis (Egyptian cotton leaf worm)
Cotton leaf discs were placed on agar in 24-well microtiter plates and sprayed with aqueous test solutions prepared from 10,000 ppm DMSO stock solutions. After drying the leaf discs were infested with five L1 larvae. The samples were assessed for mortality, anti-feedant effect, and growth inhibition in comparison to untreated samples 3 days after infestation. Control of Spodoptera littoralis by a test sample is when at least one of mortality, anti-feedant effect, and growth inhibition is higher than the untreated sample.

Cn1nc(C(F)(F)C(F)(F)F)c(OC(F)F)c1-n1cc(-c2cc(C(=O)NC3CC3)c(C#N)s2)nn1 [Example 1, 2-cyano-N-cyclopropyl-5-[1-[4-(difluoromethoxy)-2-methyl-5-(1,1,2,2,2-pentafluoroethyl)pyrazol-3-yl]triazol-4-yl]thiophene-3-carboxamide]
≥ 80%: mortality at 200 ppm (Thrips tabaci) | mortality at 200 ppm (Tetranychus urticae) | percent effect (mortality or growth inhibition) at 200 ppm (Euschistus heros) | percent effect (mortality or growth inhibition) at 200 ppm (Diabrotica balteata) | percent effect (mortality or growth inhibition) at 200 ppm (Plutella xylostella) | percent control (mortality, anti-feedant effect or growth inhibition) at 200 ppm (Spodoptera littoralis)

CN(C(=O)c1cc(-c2cn(-c3c(OC(F)F)c(C(F)(F)C(F)(F)F)nn3C)nn2)sc1C#N)C1CC1 [Example 2, 2-cyano-N-cyclopropyl-5-[1-[4-(difluoromethoxy)-2-methyl-5-(1,1,2,2,2-pentafluoroethyl)pyrazol-3-yl]triazol-4-yl]-N-methyl-thiophene-3-carboxamide]
≥ 80%: mortality at 200 ppm (Thrips tabaci) | mortality at 200 ppm (Tetranychus urticae) | percent effect (mortality or growth inhibition) at 200 ppm (Diabrotica balteata) | percent effect (mortality or growth inhibition) at 200 ppm (Plutella xylostella) | percent control (mortality, anti-feedant effect or growth inhibition) at 200 ppm (Spodoptera littoralis)

CCN(C(=O)c1cc(-c2cn(-c3c(OC(F)F)c(C(F)(F)C(F)(F)F)nn3C)nn2)sc1C#N)C1CC1 [Example 3, 2-cyano-N-cyclopropyl-5-[1-[4-(difluoromethoxy)-2-methyl-5-(1,1,2,2,2-pentafluoroethyl)pyrazol-3-yl]triazol-4-yl]-N-ethyl-thiophene-3-carboxamide]
≥ 80%: mortality at 200 ppm (Thrips tabaci) | mortality at 200 ppm (Tetranychus urticae) | percent effect (mortality or growth inhibition) at 200 ppm (Euschistus heros) | percent effect (mortality or growth inhibition) at 200 ppm (Diabrotica balteata) | percent effect (mortality or growth inhibition) at 200 ppm (Plutella xylostella) | percent control (mortality, anti-feedant effect or growth inhibition) at 200 ppm (Spodoptera littoralis)

Cn1nc(C(F)(F)C(F)(F)F)c(OC(F)F)c1-n1cc(-c2cc(C(=O)NC3(C#N)CC3)c(C#N)s2)nn1 [Example 4, 2-cyano-N-(1-cyanocyclopropyl)-5-[1-[4-(difluoromethoxy)-2-methyl-5-(1,1,2,2,2-pentafluoroethyl)pyrazol-3-yl]triazol-4-yl]thiophene-3-carboxamide]
≥ 80%: mortality at 200 ppm (Thrips tabaci) | mortality at 200 ppm (Tetranychus urticae) | percent effect (mortality or growth inhibition) at 200 ppm (Plutella xylostella) | percent control (mortality, anti-feedant effect or growth inhibition) at 200 ppm (Spodoptera littoralis)

Cn1nc(C(F)(F)C(F)(F)F)c(OC(F)F)c1-n1cc(-c2cc(C(=O)NC3CC3)c(Cl)s2)nn1 [Example 7, 2-chloro-N-cyclopropyl-5-[1-[4-(difluoromethoxy)-2-methyl-5-(1,1,2,2,2-pentafluoroethyl)pyrazol-3-yl]triazol-4-yl]thiophene-3-carboxamide]
≥ 80%: mortality at 200 ppm (Thrips tabaci) | percent effect (mortality or growth inhibition) at 200 ppm (Euschistus heros) | percent effect (mortality or growth inhibition) at 200 ppm (Diabrotica balteata) | percent effect (mortality or growth inhibition) at 200 ppm (Plutella xylostella) | percent control (mortality, anti-feedant effect or growth inhibition) at 200 ppm (Spodoptera littoralis)

Cn1nc(C(F)(F)C(F)(F)F)c(OC(F)F)c1-n1cc(-c2cc(C(=O)NC3(C#N)CC3)c(Cl)s2)nn1 [Example 10, 2-chloro-N-(1-cyanocyclopropyl)-5-[1-[4-(difluoromethoxy)-2-methyl-5-(1,1,2,2,2-pentafluoroethyl)pyrazol-3-yl]triazol-4-yl]thiophene-3-carboxamide]
≥ 80%: mortality at 200 ppm (Thrips tabaci) | percent effect (mortality or growth inhibition) at 200 ppm (Plutella xylostella) | percent control (mortality, anti-feedant effect or growth inhibition) at 200 ppm (Spodoptera littoralis)
